Source: patent publication US10660967B2, “Curcumin conjugates and methods of use thereof” (priority 2016, dated 2020)
Read-outs that look alike come from different tables or passages of the source.

Experiments:
[1] = tested on: Salmonella typhi ATCC19430; assay: Antimicrobial MIC, agar dilution; format: cell-based; settings: Salmonella enterica, read-out: Minimum inhibitory concentration (MIC)
[2] = tested on: Pseudomonas aeruginosa ATCC27853; assay: Antimicrobial MIC, agar dilution
[3] = tested on: MCF7 (breast) carcinoma cell line; assay: Anti-tumor properties, MTT; format: cell-based; settings: Homo sapiens, MCF7; read-out: IC50 (μM) MCF7 (breast)
How it was run: (§1)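 Cells seeded at 10×10^3 per well for 24 h, then exposed to compound in serum-free medium (final up to 100 μM, 0.5% DMSO vehicle) for 72 h in triplicate. Viability by MTT reduction (4 h, SDS solubilised), absorbance 595 nm/ref 620 nm; IC50 from survival curves.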

[4] = tested on: HCT116 (colon) carcinoma cell line; assay: Anti-tumor properties, MTT; format: cell-based; settings: Homo sapiens, HCT-116; read-out: IC50 (μM) HCT116 (colon)
How it was run: as §1

[5] = tested on: HepG2 (hepatocellular) carcinoma cell line; assay: Anti-tumor properties, MTT; format: cell-based; settings: Homo sapiens, HepG2; read-out: IC50 (μM) HepG2 (liver)
How it was run: as §1

[6] = tested on: Streptococcus pyogenes ATCC19615; assay: Antimicrobial MIC, agar dilution
gastric mucosa = assay: Ulcerogenic liability (ulcer index); format: in vivo, albino mice; settings: orally, three successive days, 10 mg/kg indomethacin mol equivalent; for Number of animals with ulcer: 6 animals per group; for Ulcer index: sum of the three values
How it was run: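 Albino mice were fasted 18 h before dosing, and controls got saline with a few drops of Tween 80. Gastric mucosa was checked under a 10× lens for lesions and erosions. The ulcer index combines percentage incidence divided by 10, mean ulcers per stomach and mean severity.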

[7] = tested on: Staphylococcus aureus ATCC25923; assay: Antimicrobial MIC, agar dilution
[8] = tested on: PC3 (prostate) carcinoma cell line; assay: Anti-tumor properties, MTT; format: cell-based; settings: Homo sapiens
[9] = tested on: PHA-stimulated splenocytes; assay: Proliferative response of PHA-stimulated splenocytes (MTT assay); format: cell-based; settings: PHA 5 μg/ml, 72 hr; compounds at 5 μM (method says 10 μM); ratio of O.D. versus vehicle control
How it was run: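 Freshly prepared splenocytes (1×10^6 cells/well) were cultured for 72 h at 37° C with compound at 10 μM final, with or without PHA (5 μg/ml). Viability was read by MTT (4 h), with absorbance at 570 nm against 690 nm reference. Stimulation index is the OD ratio of treated versus vehicle cultures.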

[10] = tested on: A-549 (lung) carcinoma cell line; assay: Anti-tumor properties, MTT; format: cell-based; settings: Homo sapiens, A549
[11] = tested on: lipopolysaccharide-stimulated peritoneal macrophages; assay: Production of nitric oxide by lipopolysaccharide-stimulated peritoneal macrophages (Greiss reagent); format: cell-based; parameters: Potency (%): % inhibition of nitric oxide production relative to lipopolysaccharide-stimulated macrophages: concentration or dose not given beside the values; settings: LPS-stimulated peritoneal macrophages; for Nitric oxide (nitrite) concentration, μM (average ± SD): 24 h, nitrite by Greiss reagent
How it was run: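 Macrophages in nitrite-free medium with 0.1% BSA were stimulated with LPS at 0.5–10 ng/ml, some wells also receiving epinephrine, norepinephrine or dopamine at […], for 24 h at 37° C. Nitrite in supernatants was measured with Greiss reagent, 15 min at room temperature, absorbance 532 nm.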

[12] = tested on: Candida albicans (local isolate); assay: Antimicrobial MIC, agar dilution; settings: Candida albicans, read-out: Minimum inhibitory concentration (MIC)
[13] = ATCC27853, 18 h, read-out: Minimum inhibitory concentration (MIC)
[14] = ATCC27853, read-out: Minimum inhibitory concentration (MIC)
[15] = ATCC19615, 18 h, read-out: Minimum inhibitory concentration (MIC)
[16] = ATCC19615, read-out: Minimum inhibitory concentration (MIC)
[17] = ATCC25923, 18 h, read-out: Minimum inhibitory concentration (MIC)
[18] = ATCC25923, read-out: Minimum inhibitory concentration (MIC)

COc1cc(/C=C/C(=O)CC(=O)/C=C/c2ccc(OC(=O)CCN)c(OC)c2)ccc1OC(=O)CCN.Cl.Cl [HCl-β-Ala-Cur, 3,3′-((((1E,6E)-3,5-dioxohepta-1,6-diene-1,7-diyl)bis(2-methoxy-4,1-phenylene))bis(oxy))bis(3-oxopropan-1-aminium) chloride]
MIC ([1]; 18 h): 1 µg/mL | MIC [1]: 1.71 µM | MIC [2, 13]: 1 µg/mL | MIC [2, 14]: 1.71 µM | IC50 [3]: 9.36 µM | IC50 [4]: 42.3 µM | IC50 [5]: 36.4 µM | MIC [6, 15]: 1 µg/mL | MIC [6, 16]: 1.71 µM | % Incidence of ulcer divided by 10 (gastric mucosa): 0 | Average of ulcer number (gastric mucosa): 0 | Average severity of ulcer (gastric mucosa): 0 | Number of animals with ulcer (gastric mucosa): 0/6 | Ulcer index (gastric mucosa): 0 | MIC [7, 17]: 1 µg/mL | MIC [7, 18]: 1.71 µM | IC50 [8]: 30.2 µM | Stimulation Index (average ± SD) [9]: 1.39 ± 0.98 | IC50 [10]: 32.4 µM | Potency (%): % inhibition of nitric oxide production relative to lipopolysaccharide-stimulated macrophages [11]: 41.68% | Nitric oxide (nitrite) concentration, μM (average ± SD) [11]: 15.93 ± 0.29 µM | MIC ([12]; 18 h): 0.5 µg/mL | MIC [12]: 0.857 µM

COc1cc(/C=C/C(=O)CC(=O)/C=C/c2ccc(OC(=O)[C@@H](C)NC(=O)OCc3ccccc3)c(OC)c2)ccc1OC(=O)[C@@H](C)NC(=O)OCc1ccccc1 [Z-D-Ala-Cur, ((1E,6E)-3,5-dioxohepta-1,6-diene-1,7-diyl)bis(2-methoxy-4,1-phenylene) (2R,2′R)-bis(2-(((benzyloxy)carbonyl)amino)propanoate)]
MIC ([1]; 18 h): 0.5 µg/mL | MIC [1]: 0.642 µM | MIC [2, 13]: 1 µg/mL | MIC [2, 14]: 1.28 µM | IC50 [3]: 73 µM | IC50 [4]: > 100 µM | IC50 [5]: > 100 µM | MIC [6, 15]: 0.125 µg/mL | MIC [6, 16]: 0.161 µM | % Incidence of ulcer divided by 10 (gastric mucosa): 0 | Average of ulcer number (gastric mucosa): 0 | Average severity of ulcer (gastric mucosa): 0 | Number of animals with ulcer (gastric mucosa): 0/6 | Ulcer index (gastric mucosa): 0 | MIC [7, 17]: 0.5 µg/mL | MIC [7, 18]: 0.642 µM | IC50 [8]: > 100 µM | Stimulation Index (average ± SD) [9]: 1.59 ± 0.14 | IC50 [10]: > 100 µM | Potency (%): % inhibition of nitric oxide production relative to lipopolysaccharide-stimulated macrophages [11]: 35.45% | Nitric oxide (nitrite) concentration, μM (average ± SD) [11]: 17.63 ± 0.92 µM | MIC ([12]; 18 h): 0.5 µg/mL | MIC [12]: 0.642 µM

COc1cc(/C=C/C(=O)CC(=O)/C=C/c2ccc(OC(=O)[C@@H](CCSC)NC(=O)OCc3ccccc3)c(OC)c2)ccc1OC(=O)[C@@H](CCSC)NC(=O)OCc1ccccc1 [Z-D-Met-Cur, ((1E,6E)-3,5-dioxohepta-1,6-diene-1,7-diyl)bis(2-methoxy-4,1-phenylene) (2R,2′R)-bis(2-(((benzyloxy)carbonyl)amino)-4-(methylthio)butanoate)]
MIC ([1]; 18 h): 0.5 µg/mL | MIC [1]: 0.556 µM | MIC [2, 13]: 1 µg/mL | MIC [2, 14]: 1.11 µM | IC50 [3]: > 100 µM | IC50 [4]: > 100 µM | IC50 [5]: > 100 µM | MIC [6, 15]: 0.125 µg/mL | MIC [6, 16]: 0.139 µM | % Incidence of ulcer divided by 10 (gastric mucosa): 0 | Average of ulcer number (gastric mucosa): 0 | Average severity of ulcer (gastric mucosa): 0 | Number of animals with ulcer (gastric mucosa): 0/6 | Ulcer index (gastric mucosa): 0 | MIC [7, 17]: 0.125 µg/mL | MIC [7, 18]: 0.139 µM | IC50 [8]: > 100 µM | Stimulation Index (average ± SD) [9]: 1.37 ± 0.29 | IC50 [10]: > 100 µM | Potency (%): % inhibition of nitric oxide production relative to lipopolysaccharide-stimulated macrophages [11]: 40.84% | Nitric oxide (nitrite) concentration, μM (average ± SD) [11]: 16.16 ± 1.90 µM | MIC ([12]; 18 h): 0.125 µg/mL | MIC [12]: 0.139 µM
